This passage reports IC50 results from patent US20240360133A1, “FUSED TRICYCLIC COMPOUND, PREPARATION METHOD THEREFOR AND APPLICATION THEREOF IN MEDICINE” (Jiangsu Hengrui Pharmaceuticals Co., Ltd., priority 2020, published 2024).

Structures are written as SMILES. pIC50: −log10 of the molar value.

This assay addresses T1, human TLR8 (Homo sapiens, UniProt Q9NR97).
T1 construct: host or cells: HEK-Blue hTLR8 (HEK293)
T1 sequence (Q9NR97 27-1041): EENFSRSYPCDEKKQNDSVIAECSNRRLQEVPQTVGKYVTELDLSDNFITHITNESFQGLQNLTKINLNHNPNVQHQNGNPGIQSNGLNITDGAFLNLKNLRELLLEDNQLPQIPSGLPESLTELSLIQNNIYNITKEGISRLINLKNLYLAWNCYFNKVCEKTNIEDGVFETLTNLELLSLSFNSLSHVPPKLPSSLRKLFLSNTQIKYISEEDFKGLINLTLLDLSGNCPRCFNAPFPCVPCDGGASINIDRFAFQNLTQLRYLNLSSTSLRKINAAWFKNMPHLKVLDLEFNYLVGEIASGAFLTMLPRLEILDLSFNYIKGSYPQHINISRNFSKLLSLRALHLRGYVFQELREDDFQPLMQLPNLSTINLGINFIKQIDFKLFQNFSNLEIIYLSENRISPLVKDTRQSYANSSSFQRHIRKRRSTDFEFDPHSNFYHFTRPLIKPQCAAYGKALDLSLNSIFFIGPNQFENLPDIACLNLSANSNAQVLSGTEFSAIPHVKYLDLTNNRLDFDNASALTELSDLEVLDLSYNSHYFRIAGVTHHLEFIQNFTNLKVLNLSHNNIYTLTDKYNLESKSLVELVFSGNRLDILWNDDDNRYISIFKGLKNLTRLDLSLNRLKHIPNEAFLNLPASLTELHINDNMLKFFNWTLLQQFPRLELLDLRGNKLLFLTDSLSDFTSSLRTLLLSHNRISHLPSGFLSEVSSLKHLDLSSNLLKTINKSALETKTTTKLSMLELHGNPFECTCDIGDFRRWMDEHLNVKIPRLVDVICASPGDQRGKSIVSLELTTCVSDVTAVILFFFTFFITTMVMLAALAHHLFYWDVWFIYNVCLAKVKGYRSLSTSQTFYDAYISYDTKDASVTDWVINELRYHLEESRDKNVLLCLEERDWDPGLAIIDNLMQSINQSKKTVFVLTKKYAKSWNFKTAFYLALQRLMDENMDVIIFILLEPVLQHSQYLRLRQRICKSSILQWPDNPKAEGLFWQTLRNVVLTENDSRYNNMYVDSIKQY
As to the kind of experiment: Inhibitory effect on human TLR8 pathway (HEK-Blue hTLR8 SEAP reporter). Type of assay: cell-based. The conditions noted are these: HEK-Blue hTLR8 cells, 6 μM resiquimod, 20 h, SEAP OD620. The protocol:
• 1. HEK-Blue™ hTLR8 cell (Invivogen) • 2. Resiquimod (R848, Invivogen) • 3. Alkaline phosphatase detection medium (Quanti-Blue Detection, Invivogen) • 4. Blasticidin (Invivogen) • 5. Zeocin (Invivogen) • 6. Normocin (Invivogen) • 7. DMEM/HIGH Glucose (GE Healthcare) • 8. Fetal bovine serum (FBS, Gibco) • 9. Phosphate-buffered saline (Shanghai BasalMedia Technologies Co., Ltd.) • 10. Sterile purified water (made in-house by Shanghai Hengrui) • 11. 15 mL centrifuge tube (Corning) • 12. 96-well formulating plate (Corning) • 13. 96-well flat-bottom cell culture plate (Corning) • 14. Constant-temperature cell incubator (Thermo scientific) • 15. Constant-temperature incubator (Shanghai Yiheng Scientific Instruments Co., Ltd.) • 16. PHERAstar FS microplate reader (BMG Labtech)
HEK-Blue™ hTLR8 cells were purchased from Invivogen. These cells are HEK293 cells transfected with the human Toll-like receptor 8 (TLR8) gene and the secreted alkaline phosphatase reporter gene (SEAP). The alkaline phosphatase reporter gene (SEAP) is under the regulation of the IFN—P minimal promoter comprising 5 NF-kB and AP-1 binding sites. Upon activation of TLR8 with an agonist, SEAP secretion is induced via downstream NF-kB and AP-1. After addition of an antagonist compound, the pathway described above is inhibited, and SEAP secretion is reduced. The activity of the compounds for the TLR8 pathway was evaluated by measuring OD620 through the SEAP substrate.
20 mM test compounds dissolved in 100% DMSO were serially diluted with 100% DMSO to 2000, 400, 80, 16, 3.2, 0.64, 0.128, 0.0256 μM, with blank wells containing 100% DMSO. The compounds and 100% DMSO were then 20-fold diluted in DMEM/HIGH glucose media containing 10% inactivated FBS (complete media, the same applies below). Resiquimod was diluted to 60 μM with sterile water. The 60 μM resiquimod dilution in sterile water was added to a 96-well cell culture plate at 20 μL/well. The above compounds diluted in complete media and 100% DMSO were then added at 20 μL/well to wells containing resiquimod, 20 μL of sterile water and 20 μL of 100% DMSO diluted in the complete medium were added to negative control wells.
HEK-Blue™ hTLR8 cells were cultured in a DMEM/HIGH glucose medium containing 10% inactivated FBS, 100 μg/mL Normocin, 10 μg/mL blasticidin, and 100 μg/mL Zeocin. Cells that were in a good state of growth and had grown to 70%-8% were collected. The growth medium was discarded, 5-10 mL of PBS pre-heated at 37° C. was added to wash the cells once, and 2-5 mL of pre-heated PBS was added. The cells were cultured at 37° C. for 1-2 min, dispersed by pipetting, transferred to a 15 mL centrifuge tube, and counted, and the cell density was adjusted to 4.8×10^5/mL with the complete medium. After density adjustment, 160 μL of the resulting cell suspension was added to the above 96-well cell culture plate to a final number of cells per well of 76,500/well. The final concentration of resiquimod was 6 μM, and the final concentrations of the test compounds were 10,000, 2000, 400, 80, 16, 3.2, 0.64, and 0.128 nM. The cells were cultured in a 37° C., 5% CO2 incubator for 20 h. Then 20 μL of the supernatant was added to 180 μL of the prepared alkaline phosphatase detection medium and incubated in the dark in a constant-temperature incubator at 37° C. for 120 min. The OD620 absorbance readings were taken on a microplate reader. The inhibition rate was calculated using the following formula: […]
Inhibition curves were plotted using Graphpad Prism software according to the concentrations of the compounds and the corresponding inhibition rates, and the concentrations of the compounds at which the inhibition rate reached 50%, i.e., IC50 values, were calculated and are shown in Table 2.
In turn, `Cc1cc(-c2[nH]c3cc4c(nc3c2C(C)C)CN(C(C)C)CC4)cc(C)n1` [Example 2, 2-(2,6-Dimethylpyridin-4-yl)-3,6-diisopropyl-5,6,7,8-tetrahydro-1H-pyrrolo[3,2-b][1,7]naphthyridine] showed a pIC50 of 7.52.

`Cc1c(-c2[nH]c3cc4c(nc3c2C(C)C)CNCC4)cn2ncnc2c1C` [Example 9, 2-(7,8-Dimethyl-[1,2,4]triazolo[1,5-a]pyridin-6-yl)-3-isopropyl-5,6,7,8-tetrahydro-1H-pyrrolo[3,2-b][1,7]naphthyridine]: the negative logarithm of the IC50 (pIC50) is 9.22.

In turn, `Cc1cc(-c2[nH]c3cc4c(nc3c2C(C)C)CN(Cc2ccc(N3CCNCC3)cn2)CC4)cc(C)n1` [Example 5, 2-(2,6-Dimethylpyridin-4-yl)-3-isopropyl-6-((5-(piperazin-1-yl)pyridin-2-yl)methyl)-5,6,7,8-tetrahydro-1H-pyrrolo[3,2-b][1,7]naphthyridine] gave a pIC50 of 8.60.

Compound `Cc1cc(-c2[nH]c3cc4c(nc3c2C(C)C)CNCC4)cc(C)n1` [Example 1, 2-(2,6-Dimethylpyridin-4-yl)-3-isopropyl-5,6,7,8-tetrahydro-1H-pyrrolo[3,2-b][1,7]naphthyridine] showed a pIC50 of 9.10.

Turning to `Cc1cc(-c2[nH]c3cc4c(nc3c2C(C)C)CN(CCc2ccc(N3CCNCC3)nc2)CC4)cc(C)n1` [Example 4, 2-(2,6-Dimethylpyridin-4-yl)-3-isopropyl-6-(2-(6-(piperazin-4-yl)pyridin-3-yl)ethyl)-5,6,7,8-tetrahydro-1H-pyrrolo[3,2-b][1,7]naphthyridine], the negative logarithm of the IC50 (pIC50) was 8.74.

Turning to `Cc1cc(-c2[nH]c3cc4c(nc3c2C(C)C)CN(CC23CCC(N)(CC2)CC3)CC4)cc(C)n1` [Example 7, 4-((2-(2,6-Dimethylpyridin-4-yl)-3-isopropyl-1,5,7,8-tetrahydro-6H-pyrrolo[3,2-b][1,7]naphthyridin-6-yl)methyl)bicyclo[2.2.2]octyl-1-amine], the negative logarithm of the IC50 (pIC50) is 8.66.

Compound `Cc1c(-c2[nH]c3cc4c(nc3c2C(C)C)CN(CC(N)=O)CC4)cn2ncnc2c1C` [Example 10, 2-(2-(7,8-Dimethyl-[1,2,4]triazolo[1,5-a]pyridin-6-yl)-3-isopropyl-1,5,7,8-tetrahydro-6H-pyrrolo[3,2-b][1,7]naphthyridin-6-yl)acetamide] had a pIC50 of 8.09.

In turn, `Cc1cc(-c2[nH]c3cc4c(nc3c2C(C)C)CN(CC(N)=O)CC4)cc(C)n1` [Example 8, 2-(2-(2,6-Dimethylpyridin-4-yl)-3-isopropyl-1,5,7,8-tetrahydro-6H-pyrrolo[3,2-b][1,7]naphthyridin-6-yl)acetamide] gave a pIC50 of 7.73. This pIC50 lies 0.36 log units lower than the previous one.
